Reference: PubChem BioAssay (NCI)
Several values for one entry are separate records, joined by “and”; a condition that tells them apart may be missing. Equal values may be shown once.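 Each compound was tested at five concentrations against cells in 96-well plates for 48 hours. GI50 = concentration required for 50% inhibition of growth. TGI marks complete inhibition of growth.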

Assays:
Test in all cases: NCI tumour cell line growth inhibition, 48 h
[1] = system: 786-0 renal
[2] = system: A498 renal
[3] = system: A549 NSCLC
[4] = system: ACHN renal
[5] = system: CCRF-CEM leukemia
[6] = system: COLO 205 colon
[7] = system: DLD-1 colon
[8] = system: DMS 273 small cell lung
[9] = system: EKVX NSCLC
[10] = system: HCC-2998 colon
[11] = system: HCT-116 colon
[12] = system: HCT-15 colon
[13] = system: HL-60(TB) leukemia
[14] = system: HOP-18 NSCLC
[15] = system: HOP-62 NSCLC
[16] = system: HOP-92 NSCLC
[17] = system: HT29 colon
[18] = system: IGROV1 ovarian
[19] = system: K-562 leukemia
[20] = system: KM20L2 colon
[21] = system: LXFL 529 NSCLC
[22] = system: M14 melanoma
[23] = system: M19-MEL melanoma
[24] = system: MALME-3M melanoma
[25] = system: MOLT-4 leukemia
[26] = system: NCI-H226 lung
[27] = system: NCI-H23 lung
[28] = system: NCI-H522 lung
[29] = system: OVCAR-4 ovarian
[30] = system: OVCAR-8 ovarian
[31] = system: RPMI-8226 leukemia
[32] = system: RXF 393 renal
[33] = system: SF-268 CNS
[34] = system: SF-295 CNS
[35] = system: SF-539 CNS
[36] = system: SK-MEL-28 melanoma
[37] = system: SK-MEL-5 melanoma
[38] = system: SK-OV-3 ovarian
[39] = system: SN12C renal
[40] = system: SNB-19 CNS
[41] = system: SNB-75 CNS
[42] = system: SNB-78 CNS
[43] = system: SR leukemia
[44] = system: SW-620 colon
[45] = system: U251 CNS
[46] = system: UACC-257 melanoma
[47] = system: UACC-62 melanoma
[48] = system: UO-31 renal
[49] = system: XF 498 CNS
[50] = system: CAKI-1 renal
[51] = system: DMS 114 small cell lung
[52] = system: LOX IMVI melanoma
[53] = system: NCI-H460 lung
[54] = system: OVCAR-3 ovarian
[55] = system: TK-10 renal
[56] = system: KM12 colon
[57] = system: OVCAR-5 ovarian
[58] = system: SK-MEL-2 melanoma

COc1ccc(N2C(=O)C3c4[nH]c5ccccc5c4C4CCC(C(C)(C)C)CC4C3C2=O)cc1OC (stereo not given)
TGI [1]: 33.9 µM | TGI [2]: 41.4 µM | TGI [3]: 32.6 µM | TGI [4]: 46.6 µM | TGI [5]: 98.5 µM | TGI [6]: > 100 µM | TGI [7]: 39.9 µM | TGI [8]: 31.2 µM | TGI [9]: > 100 µM | TGI [10]: > 100 µM | TGI [11]: 31.4 µM | TGI [12]: > 100 µM | TGI [13]: > 100 µM | TGI [14]: 40.8 µM | TGI [15]: 34.8 µM | TGI [16]: 44.8 µM | TGI [17]: > 100 µM | TGI [18]: > 100 µM | TGI [19]: 84.5 µM | TGI [20]: > 100 µM | TGI [21]: 32.5 µM | TGI [22]: > 100 µM | TGI [23]: > 100 µM | TGI [24]: > 100 µM | TGI [25]: 43.9 µM | TGI [26]: 38.8 µM | TGI [27]: > 100 µM | TGI [28]: 33.4 µM | TGI [29]: 52.2 µM | TGI [30]: 33.9 µM | TGI [31]: 61.5 µM | TGI [32]: 29.7 µM | TGI [33]: 38.3 µM | TGI [34]: 42.6 µM | TGI [35]: 34.7 µM | TGI [36]: > 100 µM | TGI [37]: > 100 µM | TGI [38]: 45 µM | TGI [39]: 48.5 µM | TGI [40]: 71.3 µM | TGI [41]: 32.5 µM | TGI [42]: 56.4 µM | TGI [43]: 39.9 µM | TGI [44]: 72 µM | TGI [45]: 73 µM | TGI [46]: > 100 µM | TGI [47]: > 100 µM | TGI [48]: > 100 µM | TGI [49]: 34.7 µM

O=C1CCC(=O)C12CCc1cccc(O)c12
TGI [1]: > 100 µM | TGI [3]: > 100 µM | TGI [4]: > 100 µM | TGI [50]: > 100 µM | TGI [6]: > 100 µM | TGI [7]: > 100 µM | TGI [51]: > 100 µM | TGI [8]: > 100 µM | TGI [9]: > 100 µM | TGI [10]: > 100 µM | TGI [12]: > 100 µM | TGI [13]: > 100 µM | TGI [14]: > 100 µM | TGI [15]: > 100 µM | TGI [16]: > 100 µM | TGI [17]: > 100 µM | TGI [18]: > 100 µM | TGI [19]: > 100 µM | TGI [20]: > 100 µM | TGI [52]: > 100 µM | TGI [21]: > 100 µM | TGI [22]: > 100 µM | TGI [23]: > 100 µM | TGI [24]: > 100 µM | TGI [27]: > 100 µM | TGI [53]: > 100 µM | TGI [54]: > 100 µM | TGI [29]: > 100 µM | TGI [30]: > 100 µM | TGI [31]: > 100 µM | TGI [32]: > 100 µM | TGI [33]: > 100 µM | TGI [34]: > 100 µM | TGI [36]: > 100 µM | TGI [38]: > 100 µM | TGI [39]: > 100 µM | TGI [41]: > 100 µM | TGI [42]: > 100 µM | TGI [44]: > 100 µM | TGI [55]: > 100 µM | TGI [45]: > 100 µM | TGI [47]: > 100 µM | TGI [48]: > 100 µM | TGI [49]: > 100 µM

Cc1nn(C)c(=O)c2nn(-c3ccccc3)c(C)c12
TGI [1]: > 100 µM | TGI [2]: > 100 µM | TGI [3]: > 100 µM | TGI [4]: > 100 µM | TGI [50]: > 100 µM | TGI [5]: > 100 µM | TGI [6]: > 100 µM | TGI [7]: > 100 µM | TGI [51]: > 100 µM | TGI [8]: > 100 µM | TGI [9]: > 100 µM | TGI [10]: > 100 µM | TGI [11]: > 100 µM | TGI [12]: > 100 µM | TGI [13]: > 100 µM | TGI [14]: > 100 µM | TGI [15]: > 100 µM | TGI [17]: > 100 µM | TGI [18]: > 100 µM | TGI [19]: > 100 µM | TGI [56]: > 100 µM | TGI [20]: > 100 µM | TGI [52]: > 100 µM | TGI [21]: > 100 µM | TGI [22]: > 100 µM | TGI [23]: > 100 µM | TGI [24]: > 100 µM | TGI [25]: > 100 µM | TGI [26]: > 100 µM | TGI [27]: > 100 µM | TGI [53]: > 100 µM | TGI [28]: > 100 µM | TGI [54]: > 100 µM | TGI [29]: > 100 µM | TGI [57]: > 100 µM | TGI [30]: > 100 µM | TGI [31]: > 100 µM | TGI [32]: > 100 µM | TGI [33]: > 100 µM | TGI [34]: > 100 µM | TGI [35]: > 100 µM | TGI [58]: > 100 µM | TGI [36]: > 100 µM | TGI [37]: > 100 µM | TGI [38]: > 100 µM | TGI [39]: > 100 µM | TGI [40]: > 100 µM | TGI [41]: > 100 µM | TGI [42]: > 100 µM | TGI [43]: > 100 µM | TGI [44]: > 100 µM | TGI [55]: > 100 µM | TGI [45]: > 100 µM | TGI [46]: > 100 µM | TGI [47]: > 100 µM | TGI [48]: > 100 µM

CCCCCCCCCC(=O)N[C@H]1CCc2cc(OC)c(OC)c(OC)c2-c2ccc(SC)c(=O)cc21
TGI [1]: 10.4 µM | TGI [2]: 0.0596 µM | TGI [3]: > 100 µM | TGI [4]: > 100 µM | GI50 [50]: 5.27 µM | TGI [50]: > 100 µM | TGI [5]: > 100 µM | TGI [6]: 0.0123 µM | GI50 [7]: 11.2 µM | TGI [7]: 57.7 µM | TGI [51]: 0.0403 µM | TGI [8]: 0.295 µM | TGI [9]: 9.55 µM | TGI [10]: 0.0563 µM | TGI [11]: 0.0586 µM | TGI [12]: 0.0901 µM | TGI [13]: 0.223 µM | TGI [16]: 0.0788 µM | TGI [17]: 0.0645 µM | TGI [19]: 29.5 µM | TGI [56]: 0.0436 µM | TGI [20]: 0.0387 µM | TGI [21]: 96.7 µM | TGI [23]: 67.4 µM | TGI [25]: > 100 µM | GI50 [26]: 0.619 µM | TGI [53]: 0.306 µM | TGI [54]: 0.0477 µM and 0.03 µM | GI50 [29]: 10.8 µM | TGI [29]: > 100 µM | TGI [57]: > 100 µM | TGI [32]: 0.0551 µM | TGI [35]: 0.0491 µM | TGI [37]: 0.0826 µM | TGI [38]: 0.0678 µM | TGI [39]: 19.6 µM | TGI [40]: 75 µM | TGI [42]: 38.9 µM | TGI [44]: > 100 µM | TGI [55]: 25.5 µM | TGI [45]: 0.0618 µM | TGI [46]: 13.9 µM | TGI [47]: 15.3 µM | GI50 [48]: 0.0168 µM | TGI [48]: 44.2 µM | TGI [49]: 0.0693 µM
